Counter-ions that a name gives are not always drawn.
Columns and labels:
NLRP3 [1] = target: T1, NLRP3 (Homo sapiens, UniProt Q96P20); assay: Human whole blood IL-1β release assay (LPS + nigericin, AlphaLisa); type: cell-based; set-up: Plate out 80 μl of whole blood containing 1 μg/ml of LPS; from tissue; host or cells: human whole blood from healthy donors
Experimental: For systemic delivery, the ability to inhibit NLRP3 when the compounds are present within the bloodstream is of great importance. For this reason, the NLRP3 inhibitory activity of a number of compounds in human whole blood was investigated in accordance with the following protocol.
Human whole blood in Li-heparin tubes was obtained from healthy donors from a volunteer donor panel. • 1. Plate out 80 μl of whole blood containing 1 μg/ml of LPS in 96-well, clear bottom cell culture plate (Corning #3585) • 2. Add 10 μl compound (8 points half-log dilution with 10 μM top dose) or vehicle (DMSO 0.1% FAC) to the appropriate wells • 3. Incubate for 3 hrs at 37° C., 5% CO2 • 4. Add 10 μl nigericin (Sigma #N7143) (10 μM FAC) to all wells • 5. Incubate for 1 hr at 37° C., 5% CO2 • 6. At the end of the incubation period, spin plates at 300×g for 5 mins to pellet cells and remove 20 μl of supernatant and add to 96-well v-bottom plates for IL-1β analysis (note: these plates containing the supernatants can be stored at −80° C. to be analysed at a later date) • 7. IL-1β was measured according to the manufacturer protocol (Perkin Elmer-AlphaLisa IL-1 Kit AL220F-5000) • 8. IC50 data is fitted to a non-linear regression equation (log inhibitor vs response-variable slope 4-parameters)

NLRP3 [2] = target: T1, NLRP3; assay: THP-1 cells pyroptosis assay (LPS + nigericin, resazurin read-out); type: cell-based; set-up: Seed THP-1 cells (25,000 cells/well) containing 1.0 μg/ml LPS; host or cells: THP-1 cells
Experimental: THP-1 cells (ATCC #TIB-202) were grown in RPMI containing L-glutamine (Gibco #11835) supplemented with 1 mM sodium pyruvate (Sigma #S8636) and penicillin (100 units/ml)/streptomycin (0.1 mg/ml) (Sigma #P4333) in 10% Fetal Bovine Serum (FBS) (Sigma #F0804). The cells were routinely passaged and grown to confluency (˜10^6 cells/ml). On the day of the experiment, THP-1 cells were harvested and resuspended into RPMI medium (without FBS). The cells were then counted and viability (>90%) checked by Trypan blue (Sigma #T8154). Appropriate dilutions were made to give a concentration of 625,000 cells/ml. To this diluted cell solution was added LPS (Sigma #L4524) to give a 1 μg/ml Final Assay Concentration (FAC). 40 μl of the final preparation was aliquoted into each well of a 96-well plate. The plate thus prepared was used for compound screening.
The following method step-by-step assay was followed for compound screening. • 1. Seed THP-1 cells (25,000 cells/well) containing 1.0 μg/ml LPS in 40 μl of RPMI medium (without FBS) in 96-well, black walled, clear bottom cell culture plates coated with poly-D-lysine (VWR #734-0317) • 2. Add 5 μl compound (8 points half-log dilution, with 10 μM top dose) or vehicle (DMSO 0.1% FAC) to the appropriate wells • 3. Incubate for 3 hrs at 37° C., 5% CO2 • 4. Add 5 μl nigericin (Sigma #N7143) (FAC 5 μM) to all wells • 5. Incubate for 1 hr at 37° C., 5% CO2 • 6. At the end of the incubation period, spin plates at 300×g for 3 mins and remove supernatant • 7. Then add 50 μl of resazurin (Sigma #R7017) (FAC 100 μM resazurin in RPMI medium without FBS) and incubate plates for a further 1-2 hrs at 37° C. and 5% CO2 • 8. Plates were read in an Envision reader at Ex 560 nm and Em 590 nm • 9. IC50 data is fitted to a non-linear regression equation (log inhibitor vs response-variable slope 4-parameters)

[3] = human whole blood, 1 μg/ml LPS, 10 μM nigericin, IL-1β release, read-out: HWB IC50
[4] = THP-1 cells, 1 μg/ml LPS, 5 μM nigericin, NLRP3 inhibitory activity, read-out: THP IC50

T1 sequence (Q96P20 whole entry): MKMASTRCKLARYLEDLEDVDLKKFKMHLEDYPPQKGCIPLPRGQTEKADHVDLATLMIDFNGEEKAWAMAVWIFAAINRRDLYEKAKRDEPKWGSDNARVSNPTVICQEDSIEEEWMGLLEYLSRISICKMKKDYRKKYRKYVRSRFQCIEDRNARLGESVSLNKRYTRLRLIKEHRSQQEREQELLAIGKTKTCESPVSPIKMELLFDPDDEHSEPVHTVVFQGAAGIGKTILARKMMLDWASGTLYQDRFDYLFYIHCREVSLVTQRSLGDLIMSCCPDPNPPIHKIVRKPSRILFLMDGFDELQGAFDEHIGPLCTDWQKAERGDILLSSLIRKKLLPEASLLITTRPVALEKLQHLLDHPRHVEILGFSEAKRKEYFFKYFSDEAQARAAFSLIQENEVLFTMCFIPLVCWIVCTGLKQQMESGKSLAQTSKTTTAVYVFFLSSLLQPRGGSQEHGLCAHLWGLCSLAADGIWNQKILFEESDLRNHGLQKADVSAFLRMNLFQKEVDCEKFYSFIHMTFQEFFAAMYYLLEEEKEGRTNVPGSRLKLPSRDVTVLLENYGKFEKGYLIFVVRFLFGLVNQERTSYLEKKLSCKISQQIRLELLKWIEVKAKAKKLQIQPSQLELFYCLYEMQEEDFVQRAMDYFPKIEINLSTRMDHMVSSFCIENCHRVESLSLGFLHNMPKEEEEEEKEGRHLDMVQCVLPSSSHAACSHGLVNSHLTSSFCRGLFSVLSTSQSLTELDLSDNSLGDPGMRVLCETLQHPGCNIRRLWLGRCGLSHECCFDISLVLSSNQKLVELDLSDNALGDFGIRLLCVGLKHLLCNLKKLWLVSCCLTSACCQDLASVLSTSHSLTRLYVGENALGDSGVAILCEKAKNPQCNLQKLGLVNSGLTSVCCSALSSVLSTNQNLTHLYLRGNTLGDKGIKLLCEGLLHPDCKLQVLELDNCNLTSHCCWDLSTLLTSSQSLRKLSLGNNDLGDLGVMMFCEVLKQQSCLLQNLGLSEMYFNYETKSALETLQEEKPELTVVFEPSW

Compound	IC50 (NLRP3 [1]; [3]) [nM]	IC50 (NLRP3 [2]; [4]) [nM]	IC50 (NLRP3 [1]) [nM]	IC50 (NLRP3 [2]) [nM]
O=C(Nc1c2c(cc3c1CCC3)CCC2)NS(=O)(=O)N1CCC(N2CCCC2)C1 (stereo not drawn) [Example 72, N-((1,2,3,5,6,7-Hexahydro-s-indacen-4-yl)carbamoyl)-[1,3′-bipyrrolidine]-1′-sulfonamide, potassium salt]	< 500	< 500		
CC(CNS(=O)(=O)NC(=O)Nc1c2c(cc3c1CCC3)CCC2)N(C)C (stereo not drawn) [Example 30, 3-(N-(2-(Dimethylamino)propyl))sulfamoyl)-1-(1,2,3,5,6,7-hexahydro-s-indacen-4-yl)urea, potassium salt]	< 500	< 1000		
CN(C)CC1CCN(S(=O)(=O)NC(=O)Nc2c3c(cc4c2CCC4)CCC3)C1 (stereo not drawn) [Example 68, potassium salt]	< 1000	< 500		
CC(C)NCCNS(=O)(=O)NC(=O)Nc1c2c(cc3c1CCC3)CCC2 [Example 26]	< 1000	< 500		
CN(C)CCCNS(=O)(=O)NC(=O)Nc1c2c(cc3c1CCC3)CCC2 [Example 81, 3-(N-(3-(Dimethylamino)propyl)sulfamoyl)-1-(1,2,3,5,6,7-hexahydro-s-indacen-4-yl)urea, potassium salt]	< 500	< 500		
CC(C)NCCN(C(C)C)S(=O)(=O)NC(=O)Nc1c2c(cc3c1CCC3)CCC2 [Example 28, 3-(N-Isopropyl-N-(2-(isopropylamino)ethyl))sulfamoyl)-1-(1,2,3,5,6,7-hexahydro-s-indacen-4-yl)urea, potassium salt]	< 500	< 500		
CCN1CCC1CNS(=O)(=O)NC(=O)Nc1c2c(cc3c1CCC3)CCC2 (stereo not drawn) [Example 47, 3-(N-((1-Ethylazetidin-2-yl)methyl)sulfamoyl)-1-(1,2,3,5,6,7-hexahydro-s-indacen-4-yl)urea, potassium salt]	< 1000	< 1000		
CN1C[C@H]2C[C@@H]1CN2S(=O)(=O)NC(=O)Nc1c2c(cc3c1CCC3)CCC2 [Example 43, (1R,4R)—N-((1,2,3,5,6,7-Hexahydro-s-indacen-4-yl)carbamoyl)-5-methyl-2,5-diazabicyclo[2.2.1]heptane-2-sulfonamide, potassium salt]	< 500	< 500		
CN1CCCN(S(=O)(=O)NC(=O)Nc2c3c(cc4c2CCC4)CCC3)CC1 [Example 90, N-((1,2,3,5,6,7-Hexahydro-s-indacen-4-yl)carbamoyl)-4-methyl-1,4-diazepane-1-sulfonamide, potassium salt]	< 500	< 1000		
C#CCCC1(CCNS(=O)(=O)NC(=O)Nc2c3c(cc4c2CCC4)CCC3)N=N1 [Example 45, 3-(N-(2-(3-(but-3-yn-1-yl)-3H-diazirin-3-yl)ethyl))sulfamoyl)-1-(1,2,3,5,6,7-hexahydro-s-indacen-4-yl)urea, potassium salt]	< 10000	< 500		
CN1CCCC2CN(S(=O)(=O)NC(=O)Nc3c4c(cc5c3CCC5)CCC4)CC21 (stereo not drawn) [Example 97, N-((1,2,3,5,6,7-Hexahydro-s-indacen-4-yl)carbamoyl)-1-methyloctahydro-6H-pyrrolo[3,4-b]pyridine-6-sulfonamide]	< 500	< 500		
O=C(Nc1c2c(cc3c1CCC3)CCC2)NS(=O)(=O)N1CCC(N2CCC2)C1 (stereo not drawn) [Example 73, 3-(Azetidin-1-yl)-N-((1,2,3,5,6,7-hexahydro-s-indacen-4-yl)carbamoyl)pyrrolidine-1-sulfonamide, potassium salt]	< 5000	< 1000		
Cc1cc2c(c(NC(=O)NS(=O)(=O)N(C)C)c1-c1ccnc(OC3CCN(C)CC3)c1)CCC2 [Example 113, N-((6-Methyl-5-(2-((1-methylpiperidin-4-yl)oxy)pyridin-4-yl)-2,3-dihydro-1H-inden-4-yl)carbamoyl)N,N-dimethylsulfamide]			< 500	< 500
CN1CCC[C@@H]1CN(C)S(=O)(=O)NC(=O)Nc1c2c(cc3c1CCC3)CCC2 [Example 95, 3-((R)—N-Methyl-N-((1-methylpyrrolidin-2-yl)methyl)sulfamoyl)-1-(1,2,3,5,6,7-hexahydro-s-indacen-4-yl)urea, potassium salt]	< 500	< 500		

Further lines, with some results ahead:

IC50 (NLRP3 [1]; [3]) [nM]	IC50 (NLRP3 [2]; [4]) [nM]	Compound	IC50 (NLRP3 [1]) [nM]	IC50 (NLRP3 [2]) [nM]
< 500	< 1000	CN1CCC(NS(=O)(=O)NC(=O)Nc2c3c(cc4c2CCC4)CCC3)C1 (stereo not drawn) [Example 44, 3-(N-(1-Methylpyrrolidin-3-yl))sulfamoyl)-1-(1,2,3,5,6,7-hexahydro-s-indacen-4-yl)urea, potassium salt]		
< 500	< 500	CN1CCCC1CN(C)S(=O)(=O)NC(=O)Nc1c2c(cc3c1CCC3)CCC2 (stereo not drawn) [Example 80, 3-(N-Methyl-N-((1-methylpyrrolidin-2-yl)methyl)sulfamoyl)-1-(1,2,3,5,6,7-hexahydro-s-indacen-4-yl)urea, potassium salt]		
< 5000	< 1000	CN1CCC[C@@H]1CN(C)S(=O)(=O)NC(=O)Nc1c2c(cc3c1CCC3)C=CC2 [Example 112, (R)—(N-Methyl-N-((1-methylpyrrolidin-2-yl)methyl)sulfamoyl)((1,2,3,5-tetrahydro-s-indacen-4-yl)carbamoyl)amide, potassium salt]		
< 500	< 1000	CN1CC[C@H](NS(=O)(=O)NC(=O)Nc2c3c(cc4c2CCC4)CCC3)C1 [Example 88, 3-((S)—N-(1-Methylpyrrolidin-3-yl)sulfamoyl)-1-(1,2,3,5,6,7-hexahydro-s-indacen-4-yl)urea, potassium salt]		
< 500	< 500	CC(C)N1CCC1CNS(=O)(=O)NC(=O)Nc1c2c(cc3c1CCC3)CCC2 (stereo not drawn) [Example 50, 3-(N-((1-Isopropylazetidin-2-yl)methyl)sulfamoyl)-1-(1,2,3,5,6,7-hexahydro-s-indacen-4-yl)urea, potassium salt]		
< 500	< 500	CC(C)N1C2CCC1CN(S(=O)(=O)NC(=O)Nc1c3c(cc4c1CCC4)CCC3)C2 [Example 29, N-((1,2,3,5,6,7-Hexahydro-s-indacen-4-yl)carbamoyl)-8-isopropyl-3,8-diazabicyclo[3.2.1]octane-3-sulfonamide, potassium salt]		
< 500	< 500	CN1C[C@@H]2CN(S(=O)(=O)NC(=O)Nc3c4c(cc5c3CCC5)CCC4)C[C@@H]21 [Example 93, (1R,5R)—N-((1,2,3,5,6,7-Hexahydro-s-indacen-4-yl)carbamoyl)-6-methyl-3,6-diazabicyclo[3.2.0]heptane-3-sulfonamide, potassium salt]		
< 5000	< 1000	CC(C)N(CCN(C)C)S(=O)(=O)NC(=O)Nc1c2c(cc3c1CCC3)CCC2 [Example 83, 3-(N-(2-(Dimethylamino)ethyl)-N-isopropylsulfamoyl)-1-(1,2,3,5,6,7-hexahydro-s-indacen-4-yl)urea, potassium salt]		
< 500	< 500	CCN(CC)C1CCN(S(=O)(=O)NC(=O)Nc2c3c(cc4c2CCC4)CCC3)C1 (stereo not drawn) [Example 49, 3-(3-((Diethylamino)pyrrolidine)-1-sulfamoyl)-1-(1,2,3,5,6,7-hexahydro-s-indacen-4-yl)urea, potassium salt]		
< 1000	< 500	CCN1CC2CCC(C1)N2S(=O)(=O)NC(=O)Nc1c2c(cc3c1CCC3)CCC2 [Example 62, 3-Ethyl-N-((1,2,3,5,6,7-hexahydro-s-indacen-4-yl)carbamoyl)-3,8-diazabicyclo[3.2.1]octane-8-sulfonamide, potassium salt]		
